IC50 data for two compounds are collected here from PubChem BioAssay AID624090 (The Scripps Research Institute Molecular Screening Center, 2012).

Calls of active or inactive are those of the source.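 Rule for the calls: active = AmpC beta-lactamase inhibition with IC50 of 10 µM or lower; inactive = the rest.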

The target in the assay is AmpC beta-lactamase (Escherichia coli). As to the kind of experiment: AmpC inhibition by nonselective VIM-2 inhibitor candidates, late-stage follow-up, selectivity assay for nonselective VIM-2 inhibitor project, biochemical, absorbance, probe candidates and analogs (AID 624090). Conditions: recombinant AmpC, nitrocefin hydrolysis.

Consider `CN1CCN(NC(=O)CN2C(=O)/C(=C/c3c(Cl)cccc3Cl)SC2=S)CC1`, for which the IC50 was > 60 µM (inactive).
The result for `CN1CCN(NC(=O)CN2C(=O)/C(=C/c3c(Cl)ccc(Cl)c3Cl)SC2=S)CC1` reads > 60 µM (inactive).
